Where a name gives a salt, the structure may show the parent alone.
Target: PR8M2-S (A27V/N31S reverse mutant of PR8 M2) (Influenza A virus, UniProt P06821, A27V/N31S)
Assay type: biochemical
Settings: pH 5.2

Structure (SMILES)	effect on proton channel function of PR8M2-S
CC(CCc1ccccc1)NC(C)C(O)c1ccc(O)cc1 (centres unmarked) [Nylidrin, nylidrin]	no effect
NC12CC3CC(CC(C3)C1)C2 [AMT, amantadine hydrochloride]	inhibited

Source: article PMC7290441 (Viruses, 2020)
